Data reported in article PMC10004634 (PLOS ONE, 2023).
Read-outs that look alike come from different tables or passages of the source.

Assays:
Assay in all cases: biochemical
Design in all cases: KINOMEscan scanMAX competition binding, DNA-tagged kinases, qPCR read-out, percent control at 300 nM
FLT3 = target: T1, FLT3 (Homo sapiens, UniProt P36888)
T1 sequence (P36888 1-993): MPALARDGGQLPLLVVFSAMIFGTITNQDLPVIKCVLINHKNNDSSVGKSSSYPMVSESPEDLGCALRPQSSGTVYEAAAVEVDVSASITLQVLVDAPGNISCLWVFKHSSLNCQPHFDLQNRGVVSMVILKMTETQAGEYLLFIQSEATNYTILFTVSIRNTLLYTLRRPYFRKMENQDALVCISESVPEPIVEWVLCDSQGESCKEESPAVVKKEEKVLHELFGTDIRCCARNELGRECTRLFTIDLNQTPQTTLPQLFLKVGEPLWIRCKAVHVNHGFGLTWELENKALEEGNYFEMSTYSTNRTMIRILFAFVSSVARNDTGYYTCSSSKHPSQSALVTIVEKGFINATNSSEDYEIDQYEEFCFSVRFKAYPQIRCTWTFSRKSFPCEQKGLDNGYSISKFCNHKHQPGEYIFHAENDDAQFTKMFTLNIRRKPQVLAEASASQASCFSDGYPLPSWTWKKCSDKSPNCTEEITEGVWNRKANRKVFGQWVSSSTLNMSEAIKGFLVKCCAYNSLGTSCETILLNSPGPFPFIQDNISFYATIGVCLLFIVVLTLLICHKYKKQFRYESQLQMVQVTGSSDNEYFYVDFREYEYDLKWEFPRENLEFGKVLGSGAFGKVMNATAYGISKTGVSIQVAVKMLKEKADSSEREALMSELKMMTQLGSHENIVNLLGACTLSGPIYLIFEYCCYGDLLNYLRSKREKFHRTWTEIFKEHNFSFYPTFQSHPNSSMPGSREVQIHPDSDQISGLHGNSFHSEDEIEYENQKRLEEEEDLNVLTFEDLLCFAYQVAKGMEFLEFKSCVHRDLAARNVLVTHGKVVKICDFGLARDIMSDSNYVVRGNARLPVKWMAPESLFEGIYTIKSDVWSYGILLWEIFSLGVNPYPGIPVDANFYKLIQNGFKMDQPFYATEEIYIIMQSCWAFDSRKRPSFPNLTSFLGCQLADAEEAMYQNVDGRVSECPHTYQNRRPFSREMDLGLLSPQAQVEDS

DYRK1B = DYRK1B (Homo sapiens, UniProt Q9Y463)
RIOK1 = target: T2, RIOK1 (Homo sapiens, UniProt Q9BRS2)
T2 sequence (Q9BRS2 1-568): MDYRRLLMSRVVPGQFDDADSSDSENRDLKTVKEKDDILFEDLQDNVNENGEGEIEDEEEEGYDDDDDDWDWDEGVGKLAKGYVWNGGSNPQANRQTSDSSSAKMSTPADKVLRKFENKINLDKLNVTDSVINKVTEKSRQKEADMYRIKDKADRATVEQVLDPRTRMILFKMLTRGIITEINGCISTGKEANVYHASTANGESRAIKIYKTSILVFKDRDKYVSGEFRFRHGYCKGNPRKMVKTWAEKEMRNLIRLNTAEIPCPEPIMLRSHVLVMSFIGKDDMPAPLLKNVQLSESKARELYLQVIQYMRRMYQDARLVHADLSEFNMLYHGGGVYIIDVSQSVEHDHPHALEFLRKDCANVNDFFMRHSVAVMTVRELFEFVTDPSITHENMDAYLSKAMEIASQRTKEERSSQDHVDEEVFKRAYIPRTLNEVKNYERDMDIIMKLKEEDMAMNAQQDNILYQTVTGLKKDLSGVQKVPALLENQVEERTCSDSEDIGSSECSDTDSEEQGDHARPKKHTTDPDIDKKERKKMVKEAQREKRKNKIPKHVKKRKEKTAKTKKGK

PIK3CA(Q546K) = PIK3CA(Q546K) (Homo sapiens, UniProt P42336, Q546K)
AXL = target: T3, AXL (Homo sapiens, UniProt P30530)
T3 sequence (P30530 1-894): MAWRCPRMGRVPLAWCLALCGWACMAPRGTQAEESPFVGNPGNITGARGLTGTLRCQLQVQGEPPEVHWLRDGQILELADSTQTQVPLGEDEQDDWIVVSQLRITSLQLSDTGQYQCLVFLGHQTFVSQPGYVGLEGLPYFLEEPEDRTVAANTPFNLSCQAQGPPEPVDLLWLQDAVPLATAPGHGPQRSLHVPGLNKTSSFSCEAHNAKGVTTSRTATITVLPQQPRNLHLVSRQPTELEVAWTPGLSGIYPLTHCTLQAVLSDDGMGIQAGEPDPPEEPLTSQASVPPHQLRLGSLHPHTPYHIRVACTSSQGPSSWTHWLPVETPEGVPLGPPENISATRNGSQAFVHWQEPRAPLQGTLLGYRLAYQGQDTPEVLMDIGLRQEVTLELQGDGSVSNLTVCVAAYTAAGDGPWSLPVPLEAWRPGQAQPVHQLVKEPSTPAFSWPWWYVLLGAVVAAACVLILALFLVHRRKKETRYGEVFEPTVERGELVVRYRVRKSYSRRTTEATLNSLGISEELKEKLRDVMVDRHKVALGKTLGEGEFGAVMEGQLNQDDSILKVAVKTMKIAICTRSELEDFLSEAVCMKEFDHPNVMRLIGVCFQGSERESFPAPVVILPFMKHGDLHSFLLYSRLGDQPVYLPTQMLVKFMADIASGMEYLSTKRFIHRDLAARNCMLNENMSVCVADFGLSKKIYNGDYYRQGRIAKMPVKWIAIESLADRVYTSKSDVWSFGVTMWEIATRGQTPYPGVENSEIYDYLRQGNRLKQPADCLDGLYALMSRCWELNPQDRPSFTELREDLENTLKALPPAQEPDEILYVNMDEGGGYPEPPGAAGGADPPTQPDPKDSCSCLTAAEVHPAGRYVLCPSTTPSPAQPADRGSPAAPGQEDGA

p38-alpha = target: T4, p38-alpha (Homo sapiens, UniProt Q16539)
T4 construct: gene MAPK14

[1] = read-out: Percent control / Acalabrutinib
[2] = read-out: Percent control / Ibrutinib
[3] = read-out: Percent control / Tirabrutinib
[4] = read-out: Percent control / Zanubrutinib

Chain of PIK3CA(Q546K) (P42336 whole entry Q546K): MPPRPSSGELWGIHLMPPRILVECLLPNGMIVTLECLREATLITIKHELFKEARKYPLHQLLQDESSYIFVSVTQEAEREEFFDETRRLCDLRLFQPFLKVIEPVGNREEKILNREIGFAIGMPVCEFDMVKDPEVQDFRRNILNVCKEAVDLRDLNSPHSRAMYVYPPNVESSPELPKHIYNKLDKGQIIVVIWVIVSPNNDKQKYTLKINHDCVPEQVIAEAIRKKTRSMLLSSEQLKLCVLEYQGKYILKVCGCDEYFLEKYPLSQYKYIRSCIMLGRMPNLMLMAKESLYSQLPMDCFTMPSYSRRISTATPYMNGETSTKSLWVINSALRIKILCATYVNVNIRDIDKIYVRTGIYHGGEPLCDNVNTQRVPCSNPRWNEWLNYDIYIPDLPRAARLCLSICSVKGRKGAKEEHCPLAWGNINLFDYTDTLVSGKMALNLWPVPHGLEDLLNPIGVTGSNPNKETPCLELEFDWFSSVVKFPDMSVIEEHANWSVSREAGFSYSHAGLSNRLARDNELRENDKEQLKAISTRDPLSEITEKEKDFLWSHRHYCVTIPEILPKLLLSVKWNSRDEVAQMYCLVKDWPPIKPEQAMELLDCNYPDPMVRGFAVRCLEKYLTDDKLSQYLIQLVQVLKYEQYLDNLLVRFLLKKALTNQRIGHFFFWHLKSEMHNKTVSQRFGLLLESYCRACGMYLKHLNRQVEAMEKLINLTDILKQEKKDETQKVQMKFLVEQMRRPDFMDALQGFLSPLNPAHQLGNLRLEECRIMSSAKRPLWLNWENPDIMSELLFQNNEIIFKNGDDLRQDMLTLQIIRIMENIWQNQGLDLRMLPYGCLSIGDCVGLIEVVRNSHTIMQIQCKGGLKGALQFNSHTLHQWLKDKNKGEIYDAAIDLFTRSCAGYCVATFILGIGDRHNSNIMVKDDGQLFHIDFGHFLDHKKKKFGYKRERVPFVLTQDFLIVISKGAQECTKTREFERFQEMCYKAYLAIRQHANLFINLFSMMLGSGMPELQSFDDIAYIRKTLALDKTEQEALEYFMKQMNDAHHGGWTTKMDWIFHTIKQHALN
T4 sequence (Q16539 whole entry): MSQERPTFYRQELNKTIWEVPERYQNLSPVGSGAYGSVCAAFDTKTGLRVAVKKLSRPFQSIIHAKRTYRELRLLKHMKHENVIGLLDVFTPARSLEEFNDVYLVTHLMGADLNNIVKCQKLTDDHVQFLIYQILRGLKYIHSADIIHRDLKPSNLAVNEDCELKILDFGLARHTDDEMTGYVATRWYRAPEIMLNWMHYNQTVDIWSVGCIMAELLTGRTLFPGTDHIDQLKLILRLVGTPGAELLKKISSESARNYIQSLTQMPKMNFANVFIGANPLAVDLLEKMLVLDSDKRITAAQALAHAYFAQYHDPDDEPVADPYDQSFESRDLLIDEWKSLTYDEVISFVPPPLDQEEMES
Chain of DYRK1B (Q9Y463 whole entry): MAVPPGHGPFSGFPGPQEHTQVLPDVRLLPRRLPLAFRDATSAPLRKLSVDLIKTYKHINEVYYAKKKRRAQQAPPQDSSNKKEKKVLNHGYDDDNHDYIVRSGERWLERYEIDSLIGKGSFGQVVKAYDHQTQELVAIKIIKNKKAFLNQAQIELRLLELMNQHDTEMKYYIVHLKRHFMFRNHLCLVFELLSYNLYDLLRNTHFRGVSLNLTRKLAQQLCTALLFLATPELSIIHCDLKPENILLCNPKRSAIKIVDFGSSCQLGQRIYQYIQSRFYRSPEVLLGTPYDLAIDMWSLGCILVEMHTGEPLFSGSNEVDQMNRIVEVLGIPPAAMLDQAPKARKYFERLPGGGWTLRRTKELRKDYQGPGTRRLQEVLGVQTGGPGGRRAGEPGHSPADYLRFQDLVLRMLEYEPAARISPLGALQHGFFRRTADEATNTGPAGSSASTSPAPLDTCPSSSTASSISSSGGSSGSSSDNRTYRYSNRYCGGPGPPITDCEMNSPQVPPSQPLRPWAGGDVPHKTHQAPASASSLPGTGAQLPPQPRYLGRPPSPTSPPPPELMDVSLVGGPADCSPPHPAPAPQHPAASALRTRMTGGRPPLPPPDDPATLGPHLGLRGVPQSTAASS

CC#CC(=O)N1CCC[C@H]1c1nc(-c2ccc(C(=O)Nc3ccccn3)cc2)c2c(N)nccn12 [Acalabrutinib] was tested, and the remaining binding at 0.3 µM (FLT3; [1]) was 86%, the remaining binding at 0.3 µM (DYRK1B; [1]) was 72% and the remaining binding at 0.3 µM (RIOK1; [1]) was 72%. For the same compound, the remaining binding at 0.3 µM (PIK3CA(Q546K); [1]) was 88%, the remaining binding at 0.3 µM (AXL; [1]) was 88% and the remaining binding at 0.3 µM (p38-alpha; [1]) was 85%.

Work on C=CC(=O)N1CCC[C@@H](n2nc(-c3ccc(Oc4ccccc4)cc3)c3c(N)ncnc32)C1 [Ibrutinib] yielded a remaining binding at 0.3 µM (FLT3; [2]) of 47%, a remaining binding at 0.3 µM (RIOK1; [2]) of 51% and a remaining binding at 0.3 µM (PIK3CA(Q546K); [2]) of 62%. The remaining binding at 0.3 µM (AXL; [2]) was 85% and the remaining binding at 0.3 µM (p38-alpha; [2]) was 98%.

With CC#CC(=O)N1CC[C@@H](n2c(=O)n(-c3ccc(Oc4ccccc4)cc3)c3c(N)ncnc32)C1 [Tirabrutinib] the remaining binding at 0.3 µM (FLT3; [3]) was 98%, the remaining binding at 0.3 µM (DYRK1B; [3]) was 70% and the remaining binding at 0.3 µM (RIOK1; [3]) was 79%. For the same compound, the remaining binding at 0.3 µM (PIK3CA(Q546K); [3]) was 78% and the remaining binding at 0.3 µM (p38-alpha; [3]) was 92%.

Compound C=CC(=O)N1CCC([C@@H]2CCNc3c(C(N)=O)c(-c4ccc(Oc5ccccc5)cc4)nn32)CC1 [Zanubrutinib] has a remaining binding at 0.3 µM (FLT3; [4]) of 90%, a remaining binding at 0.3 µM (DYRK1B; [4]) of 71% and a remaining binding at 0.3 µM (RIOK1; [4]) of 75%. For the same compound, the remaining binding at 0.3 µM (PIK3CA(Q546K); [4]) was 100%, the remaining binding at 0.3 µM (AXL; [4]) was 91% and the remaining binding at 0.3 µM (p38-alpha; [4]) was 97%.
